Assay results published in patent US20040237130A1, “Embryogenic culture initiation of douglas-fir by maltose” (Weyerhaeuser Company, priority 2003, published 2004).

Experiments:
Douglas-fir explants = assay: Initiation of embryonal suspensor masses (ESM) from Douglas-fir explants on BM1 initiation medium; format: cell-based; settings: for Initiation (#) / Initiation (%): sugar 15000 mg/L in semi-solid BM1 initiation medium, 5-6 weeks, dark
Method: Cones were collected from four mother tree crosses (full-sib families) at a time when the embryos were in the pre-dome and dome stage of development. Cones were transferred on blue ice and stored in plastic bags in a cold room at 0-4° C. until needed for dissections. Seeds were removed from cones and dissected on the same day. After the seeds were removed, they were placed into a beaker containing pre-sterilized water. Seeds were divided into aliquots of 60-80 seeds. Each aliquot was placed into a separate pre-sterilized tea strainer before undergoing the following procedure. First, seeds were agitated in 10% Liqui-nox (+2 droppers full Tween-20 per liter) for 10 minutes. After rinsing the seeds in deionized water (18 megaohms) for 30 minutes, the tea strainers were exposed to 20% (v/v) H2O2 for 10 minutes in a fume hood on a rotary shaker (175 rpm). The H2O2 was diluted just before use with sterile, deionized water. Following application of the H2O2, each strainer was placed into a separate beaker of sterile deionized water, covered with foil, and moved into the laminar flow hood. All subsequent steps were carried out in the laminar flow hood. Each tea strainer was rinsed by agitating 4-8 times in each of 5 separate portions of sterile deionized water. The contents of each tea strainer were then dumped into a large petri dish containing a sterile filter paper and a few millimeters of sterile water (to help keep seeds from drying). Seeds were placed into 60×15 mm sterile petri plates containing 0.2 ml sterile deionized water each. Those seeds not dissected after sterilization were thrown out at the end of the day. Dissections were done in clean laminar flow hoods. Clean gloves were worn throughout the preparatory steps and dissection. Sterile forceps and scalpels were used to carefully split the seed, remove the female gametophyte and nucellus, and to split the female gametophyte. The embryo suspensor was pulled out, but kept attached to (or touching) the female gametophyte. Embryo and gametophyte were placed unto initiation medium BM1 so that the embryo was visible through the petri dish lid. Initiation: Half of the embryos and gametophytes (Group 1) from each cross were placed on a semi-solid BM1 initiation medium (Table 2), the other half (Group 2) were placed on semi-solid BM1 initiation medium in which the maltose was replaced with sucrose (15000 mg/L). The explants were held in an environment at 22°-25 C with a 24 hour dark photoperiod for a time of 5-6 weeks. The length of time depends on the particular genotype being cultured. Embryonal suspensor masses (ESM) (White, translucent, and mucilaginous) were observed beginning 2-3 weeks after inoculation. […] Initiation is defined as growth of an embryonal suspensor mass from an explant. Overall, the percentage of ESMs initiated from explants was 27% for Group A and 18% for Group B. Initiation improved for each of the 4 crosses tested when explants were cultured on initiation medium containing maltose (Group A). Overall, the number of explants initiated increased by 51% for explants cultured on initiation medium containing maltose, compared to explants cultured on initiation medium containing sucrose.

[1] = system: Douglas-fir embryonal suspensor masses; assay: Establishment of embryonal suspensor masses on BM2 maintenance medium; format: cell-based; settings: for Initiation (#) (Establishment Frequencies) / Initiation (%) (Establishment Frequencies) / Initiation (%) (Establishment Frequencies); proportion of established ESMs: sugar 30000 mg/L in solid BM2 maintenance medium, 12-15 subcultures
Method: Maintenance: After 5-6 weeks, ESMs from Group A were subcultured onto a solid BM2 maintenance medium (Table 2), and ESMs from Group B were subcultured unto a BM2 maintenance medium in which the maltose was replaced with sucrose (30000 mg/L). The maintenance medium differs from the initiation medium in that the growth hormones (both auxins and cytokinins) are reduced by at least a full order of magnitude. Osmolality of this medium was typically raised from that of the initiation medium to about 180 mM/kg or higher (typically within the range of about 180-400 mM/kg) by increasing the concentration of myo-inositol to 0.5% w/v. The temperature and photoperiod were again 22°-25 C. with 24 hours in the dark. ESMs were subcultured every 12 days onto fresh maintenance medium. The number of ESMs established from explants for each group after a total of 12-15 subcultures on maintenance is shown in Table 4. An ESM was considered to be established if it weighed between 250 mg and 500 mg (fresh weight) or if measured 1-2 cms in diameter, after several subcultures. The proportion of established ESMs obtained was 18% for explants in Group A and 11% for explants in Group B. The frequencies of established ESMs improved for each of the 4 crosses tested when explants were cultured on maintenance medium containing maltose (Group A). Overall, the number of established ESMs increased by 51% for explants cultured on maintenance medium containing maltose, compared to explants cultured on maintenance medium containing sucrose.

Structure (SMILES)	Initiation (#) (Douglas-fir explants; Cross 1)	Initiation (%) (Douglas-fir explants; Cross 1)	Initiation (#) (Douglas-fir explants; Cross 2)	Initiation (%) (Douglas-fir explants; Cross 2)	Initiation (#) (Douglas-fir explants; Cross 3)	Initiation (%) (Douglas-fir explants; Cross 3)	Initiation (#) (Douglas-fir explants; Cross 4)	Initiation (%) (Douglas-fir explants; Cross 4)	Initiation (%) (Douglas-fir explants; Total of 4 crosses (overall))	Initiation (#) (Douglas-fir explants; Total of 4 crosses)	Initiation (#) (Establishment Frequencies) ([1]; Cross 1)	Initiation (%) (Establishment Frequencies) ([1]; Cross 1)	Initiation (#) (Establishment Frequencies) ([1]; Cross 2)	Initiation (%) (Establishment Frequencies) ([1]; Cross 2)	Initiation (#) (Establishment Frequencies) ([1]; Cross 3)	Initiation (%) (Establishment Frequencies) ([1]; Cross 3)	Initiation (#) (Establishment Frequencies) ([1]; Cross 4)	Initiation (%) (Establishment Frequencies) ([1]; Cross 4)	Initiation (#) (Establishment Frequencies) ([1]; Total of 4 crosses)	Initiation (%) (Establishment Frequencies); proportion of established ESMs ([1]; Total of 4 crosses)	further results
OC[C@H]1O[C@@](CO)(O[C@H]2O[C@H](CO)[C@@H](O)[C@H](O)[C@H]2O)[C@@H](O)[C@@H]1O [Group B, sucrose, reference compound]	42 #	30	20 #	19	14 #	13	8 #	7	18	84 #	20 #	14	6 #	6	12 #	11	13 #	12	51 #	11	
OC[C@H]1O[C@H](O[C@H]2[C@H](O)[C@@H](O)C(O)O[C@@H]2CO)[C@H](O)[C@@H](O)[C@@H]1O (mixture of isomers) [Group A, maltose]	63 #	46	30 #	28	21 #	19	13 #	12	27	127 #	36 #	26	11 #	10	20 #	18	17 #	15	84 #	18	Initiation for each of the 4 crosses tested, compared with sucrose medium (Douglas-fir explants; each of 4 crosses): improved; increase in number of explants initiated compared to initiation medium containing sucrose (Douglas-fir explants; overall, 4 crosses): 51%; frequencies of established ESMs for each of the 4 crosses tested, compared with sucrose medium ([1]; each of 4 crosses): improved; increase in number of established ESMs compared to maintenance medium containing sucrose ([1]; overall, 4 crosses): 51%
